Data from the NIST ThermoML archive (doi:10.1016/j.jct.2007.10.002).

Columns and labels:
[1] = refractive index (Na D-line) (dimensionless); conditions: 298.15 K; 101.33 kPa; Liquid; Standard Abbe refractometry
[2] = 298.15 K, 101 kPa, Liquid; for viscosity: Capillary tube (Ostwald / Ubbelohde) method; for mass density: Vibrating tube method
[3] = xn = mol fraction of the nth substance listed; conditions: 298.15 K, 101 kPa, Liquid; for viscosity: Capillary tube (Ostwald / Ubbelohde) method; for mass density: Vibrating tube method
[4] = refractive index (Na D-line) (dimensionless); xn = mol fraction of the nth substance listed; conditions: 298.15 K, 101 kPa, Liquid, Standard Abbe refractometry

CCCCn1cc[n+](C)c1C.F[B-](F)(F)F [1-butyl-2,3-dimethylimidazolium tetrafluoroborate]
Conditions | mass density [kg/m3] | refractive index | viscosity [mPa·s]
[1] | – | 1.433 | –
[2] | 1191.2 | – | 455.81

CCCCn1cc[n+](C)c1C.F[B-](F)(F)F [1-butyl-2,3-dimethylimidazolium tetrafluoroborate] + O
Conditions | mass density, [3] [kg/m3] | refractive index, [4] | viscosity, [3] [mPa·s]
x1 = 0.0085 | 1012.56 | – | 1.06
x1 = 0.0397 | 1053.33 | 1.362 | 1.83
x1 = 0.1068 | 1100.33 | 1.387 | 3.96
x1 = 0.1997 | 1132.18 | 1.404 | 7.34
x1 = 0.2577 | 1144.22 | 1.411 | 10.07
x1 = 0.3222 | 1154.04 | 1.417 | 12.62
x1 = 0.4983 | – | 1.423 | –
x1 = 0.7058 | 1182.14 | 1.429 | 94.63
x1 = 0.7325 | 1183.22 | 1.43 | 104.97
x1 = 0.8659 | 1187.78 | 1.432 | 214.82
x1 = 1 | 1191.2 | 1.433 | 455.81

CCCCn1cc[n+](C)c1.F[B-](F)(F)F [1-butyl-3-methylimidazolium tetrafluoroborate]
Conditions | mass density [kg/m3] | refractive index | viscosity [mPa·s]
[1] | – | 1.422 | –
[2] | 1200.3 | – | 100.66

CCCCn1cc[n+](C)c1.F[B-](F)(F)F [1-butyl-3-methylimidazolium tetrafluoroborate] + O
Conditions | mass density, [3] [kg/m3] | refractive index, [4] | viscosity, [3] [mPa·s]
x1 = 0.036 | 1050.07 | – | 1.51
x1 = 0.044 | 1058.55 | 1.36 | 1.67
x1 = 0.1267 | 1112.51 | 1.384 | 3.22
x1 = 0.3134 | 1158.59 | 1.405 | 7.2
x1 = 0.4984 | 1177.85 | 1.412 | 13.63
x1 = 0.5802 | 1183.49 | 1.415 | 19.25
x1 = 0.7488 | – | 1.418 | –
x1 = 0.8089 | 1194.47 | 1.419 | 46.55
x1 = 0.9719 | 1199.54 | 1.421 | 88.87
x1 = 1 | 1200.3 | 1.422 | 100.66

O [water] + CCCCn1cc[n+](C)c1.F[B-](F)(F)F
x2 = 0
Conditions | refractive index | viscosity [mPa·s]
[3] | – | 0.89
[4] | 1.333 | –

O [water] + CCCCn1cc[n+](C)c1C.F[B-](F)(F)F
x2 = 0
Conditions | refractive index | viscosity [mPa·s]
[3] | – | 0.89
[4] | 1.333 | –
